According to patent US20090142330A1, “Use of inactive-plasmin to treat chronic inflammatory disease and tumors” (The Government of the United States of America as …, priority 2007, published 2009):

Experiments:
Type in all cases: cell-based, human
p38 MAPK = assay: Phosphorylation of p38 MAPK in monocytes, Western blot; details: LPS-stimulated monocytes, 1 hour; FIG. 5B
Procedure: (§1) For detection of the levels of activated ERK1/2 and p38 MAPKs monocytes were cultured in DMEM at 5×10^6/ml in suspension. Ten to 60 minutes after the addition of reagents, the cells were pelleted and lysed with SDS loading buffer (prepared as described above). The supernatants were loaded onto 12% Tris-glycine gels. The blots were then incubated overnight with mouse anti-human antibodies against the phosphorylated forms of ERK1/2 and p38 and with rabbit anti-human antibodies against total ERK1/2 and p38 as a measure of equal loading of the gels.
(§2) Western blots for MMP-1, MAPKs and COX-2 were incubated overnight with primary antibodies, washed and analyzed by the addition of Alexa Fluor 680 goat anti-rabbit or Alexa Fluor 750 goat anti-mouse antibodies (Molecular Probes® Inc., Eugene, Oreg.) and the infrared fluorescence detected with the Odyssey infrared imaging system (LI-COR, Lincoln, Nebr.). Densitometry analysis of the bands on the Western blots was determined with the LI-COR software analysis program or the ImageQuant software analysis program (Amersham Biosciences, Piscataway, N.J.).

ERK1/2 = assay: Phosphorylation of ERK1/2 in monocytes, Western blot; details: LPS-stimulated monocytes, 1 hour; FIG. 5B
Procedure: as §1, §2

MMP-1 mRNA in monocytes = assay: MMP-1 mRNA in monocytes, semiquantitative RT-PCR; details: FIG. 2C
Procedure: Plasmin activity assay. Plasmin activity was determined with the SPECTROZYME PL kit (American Diagnostica Inc., Stamford, Conn.) which utilizes the chromogenic substrate H-D-norleucyl-hexahydrotyrosol-lysine-para-nitroanilide diacetate. For detection of cell-associated plasmin activity, monocytes were cultured at 1×10^6/well in Hanks Balanced Solution containing calcium and magnesium (Hyclone, Logan, Utah) with the plasmin substrate. Kinetic absorbance readings were measured at 405 nm. RT-PCR. Total cellular RNA was extracted with the RNeasy Mini Kit (QIAGEN® Inc., Valencia, Calif.) 8 hours after stimulation of monocytes with LPS. Transcript levels of MMP-1 were determined using semiquantitative reverse transcriptase-polymerase chain reaction (RT-PCR) with GADPH as an internal control. […] The amplified DNA was separated by 1.7% agarose gel electrophoresis, stained with SYTO 60 red fluorescent nucleic acid stain (Molecular Probes®, Eugene, Oreg.), and the intensity of the stained bands was analyzed with an infrared imaging system. […] FITC-conjugated BSA, plasmin (2.5 μg in 10 μl) or anti-human antibodies (1-2.5 μg/10 μl) then were added, respectively, incubated for 30 min and washed and analyzed by the FACSCalibur system (Becton Dickinson Biosciences, Franklin Lakes, N.J.). […] Flow cytometry results were analyzed by CELLQuest software (Becton Dickinson Biosciences, Franklin Lakes, N.J.). […]

cyclooxygenase-2 (COX-2) = assay: COX-2 protein in monocyte membranes, Western blot; details: LPS 25 ng/ml; HMW-uPA 30 nM or plasmin 360 nM; FIG. 4A
Procedure: Cell protein isolation for the determination of COX-2 protein levels were prepared as previously described (Zhang et al., J. Clin. Invest. 99: 894-900, 1997). Briefly, 20×10^6 monocytes in 4 ml of DMEM were cultured in suspension in 17 ml polypropylene tubes overnight in the presence or absence of reagents. The cells were then washed in phosphate buffered saline with protease inhibitors. The cell pellets were resuspended in 250 mM sucrose containing protease inhibitors and sonicated (Ultrasonic Cell Disrupter, Kontes, American Instrument Exchange, Inc., Haverhill, Mass.). Nuclear debris and unbroken cells were pelleted at 100×g and the supernatant microfuged at 1,500×g to pellet cell membrane proteins. Equal amounts of protein were loaded onto 12% Tris Glycine gels. […] Equal loading of samples was measured with mouse anti-β-actin antibodies.
as §2

Substance: plasmin
- phosphorylation of p38 (p38 MAPK): induced increases
- phosphorylation of ERK1/2 (ERK1/2): induced increases
- MMP-1 mRNA level (MMP-1 mRNA in monocytes; LPS-stimulated monocytes, 8 hours): dose-dependent increase
- induction of MMP-1 mRNA (MMP-1 mRNA in monocytes; control (unstimulated) monocytes): did not induce MMP-1
- LPS-induced COX-2 protein level (cyclooxygenase-2 (COX-2)): increased
